These results are taken from PubChem BioAssay (NCI).

Some test systems named below: CAKI-1 renal; CCRF-CEM leukemia; COLO 205 colon; HCT-116 colon; KM12 colon; MCF7 breast; RXF 393 renal; SR leukemia; TK-10 renal; UACC-257 melanoma.
What all share (experiment): growth of human tumour cells (NCI), 48 h

Values joined by “and” are separate entries in the source; they are usually repeats but may differ in a detail not shown here. Equal values may be shown once.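 Briefly, cells in 96-well plates were exposed to five compound concentrations for 48 h, and endpoints were estimated by linear interpolation. GI50 marks 50% less growth. The concentration for full growth arrest is given as TGI.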

With `COc1cc(N2C(=O)[C@H](Cl)C2c2ccc(SC)cc2)cc(OC)c1OC` (stereo partly specified), the GI50 in the assay with CAKI-1 renal was 0.0484 µM; in the assay with CCRF-CEM leukemia, 0.305 µM; in the assay on COLO 205 colon it was 0.0677 µM; with HCT-116 colon, 0.035 µM; with KM12 colon, 0.0473 µM; with MCF7 breast, 0.0356 µM. The GI50 in the assay on RXF 393 renal is 0.0385 µM; in the assay with SR leukemia, 0.0473 µM; in the assay on TK-10 renal it was 1.94 µM; in the assay on UACC-257 melanoma it was 32.2 µM. Moreover, the TGI in the assay with CAKI-1 renal was over 100 µM; in the assay with CCRF-CEM leukemia it was over 100 µM; in the assay on COLO 205 colon, 11.4 µM; with HCT-116 colon, 1 µM; in the assay on KM12 colon, 20.3 µM; in the assay on MCF7 breast, over 100 µM. The TGI in the assay with RXF 393 renal, in the assay on SR leukemia, in the assay on TK-10 renal and in the assay with UACC-257 melanoma was over 100 µM each time.
For `Oc1ccc(Cl)cc1C=Nc1cnc2ccccc2c1`, the TGI was over 100 µM with CAKI-1 renal; 7.1 µM in the assay on CCRF-CEM leukemia; over 100 µM in the assay on COLO 205 colon; over 100 µM in the assay on HCT-116 colon; over 100 µM with KM12 colon; over 100 µM in the assay on MCF7 breast. The TGI with RXF 393 renal was over 100 µM; with SR leukemia, over 100 µM; in the assay on TK-10 renal, over 100 µM; in the assay with UACC-257 melanoma, 45.3 µM.
Regarding `O=C1NC(=NCCc2ccc(Cl)cc2)S/C1=C\c1ccc2ncccc2c1`, the GI50 in the assay on CAKI-1 renal was over 19.5 µM; in the assay with CCRF-CEM leukemia it was 12.5 µM; with COLO 205 colon, 15.3 µM; in the assay with HCT-116 colon, 9.14 µM; in the assay with KM12 colon, over 23 µM; in the assay with MCF7 breast, 10.2 µM. For the same compound, the results for the GI50 in the assay with RXF 393 renal, with SR leukemia and in the assay with UACC-257 melanoma were 11 µM, 6.92 µM and over 25 µM, respectively. For the same compound, the TGI in the assay with CAKI-1 renal, in the assay on CCRF-CEM leukemia, in the assay with COLO 205 colon, in the assay with HCT-116 colon, in the assay on KM12 colon and with MCF7 breast was over 25 µM throughout. The TGI with RXF 393 renal, with SR leukemia and with UACC-257 melanoma was over 25 µM each time.
On to `COC1=CC(=O)O/C1=C(\OC)C1OC1c1ccccc1` (stereo unspecified), for which the TGI in the assay with CAKI-1 renal, in the assay with CCRF-CEM leukemia, in the assay on COLO 205 colon, in the assay with HCT-116 colon, with KM12 colon and in the assay on MCF7 breast was over 100 µM in each case. For the same compound, the TGI in the assay with RXF 393 renal was over 100 µM; with SR leukemia, 93.8 µM; in the assay with TK-10 renal, over 100 µM; in the assay on UACC-257 melanoma, over 100 µM.
As to `CCCCNC(c1ccc(Cl)cc1)C(O)c1ccc(Cl)cc1` (stereo unspecified), the GI50 in the assay with CAKI-1 renal is 1.82 µM; in the assay with CCRF-CEM leukemia, 2.49 µM; in the assay with COLO 205 colon, 1.56 µM; in the assay with HCT-116 colon it was 0.938 µM; in the assay on KM12 colon it was 2.04 µM; in the assay with MCF7 breast, 1.95 µM. Besides, the GI50 in the assay with RXF 393 renal was 1.49 µM; in the assay on SR leukemia, 1.07 µM; in the assay with TK-10 renal it was 2.2 µM; in the assay with UACC-257 melanoma, 2.25 µM. Besides, the TGI is 6.63 µM with CAKI-1 renal; 8.65 µM with CCRF-CEM leukemia; 3.25 µM in the assay with COLO 205 colon; 2.27 µM in the assay with HCT-116 colon; 5.34 µM in the assay on KM12 colon; 5.03 µM in the assay on MCF7 breast. In addition, the TGI stood at 3.65 µM in the assay with RXF 393 renal, 3.75 µM with SR leukemia, 6.99 µM in the assay on TK-10 renal and 5.03 µM in the assay on UACC-257 melanoma.
Regarding `O=c1[nH]c(C2CCCN2)nc2c1oc1ccc(Cl)cc12` (stereo unspecified), the GI50 in the assay with CAKI-1 renal was over 100 µM; with CCRF-CEM leukemia, 68.1 µM; in the assay with COLO 205 colon, 26 µM; with HCT-116 colon it was over 90.7 µM; in the assay on KM12 colon it was over 100 µM; with MCF7 breast, 80.4 µM. Also, the GI50 was over 70.2 µM with RXF 393 renal, 61.1 µM in the assay with SR leukemia, over 100 µM with TK-10 renal and 54.8 µM in the assay on UACC-257 melanoma. In addition, the TGI in the assay with CAKI-1 renal, with CCRF-CEM leukemia, in the assay with COLO 205 colon, in the assay with HCT-116 colon, with KM12 colon and in the assay with MCF7 breast was over 100 µM in each case. Further, the TGI in the assay on RXF 393 renal, in the assay with SR leukemia, in the assay with TK-10 renal and in the assay on UACC-257 melanoma was over 100 µM throughout.
Consider `COc1ccc(-n2c(=S)sc3c(Cl)nc(C)nc32)c(OC)c1`, for which the GI50 with CAKI-1 renal was 6.16 µM; in the assay with CCRF-CEM leukemia it was 2.66 µM; in the assay on COLO 205 colon, 3.83 µM; with HCT-116 colon, 1.83 µM; in the assay on KM12 colon, 3.33 µM; in the assay with MCF7 breast, 3.67 µM. Besides, the GI50 with RXF 393 renal was 2 µM; in the assay on SR leukemia, 1.42 µM; with TK-10 renal, 4.66 µM; in the assay on UACC-257 melanoma it was 2.35 µM. In addition, the TGI with CAKI-1 renal amounted to 19.3 µM; in the assay on CCRF-CEM leukemia it was 7.45 µM; with COLO 205 colon, 13.3 µM; with HCT-116 colon it was 3.71 µM; in the assay on KM12 colon, 11.5 µM; in the assay with MCF7 breast, 15.6 µM. The TGI in the assay with RXF 393 renal came to 4.07 µM; with SR leukemia, 5.52 µM; in the assay on TK-10 renal, 18.7 µM; in the assay with UACC-257 melanoma, 5.62 µM.
Consider `[N-]=[N+]=CC(=O)CCC(N)C(=O)O` (stereo unspecified), for which the GI50 with CAKI-1 renal was 10.9 µM; in the assay with CCRF-CEM leukemia, 5.82 µM; in the assay on COLO 205 colon, 0.812 µM; in the assay with HCT-116 colon, 0.457 µM and 0.955 µM; in the assay with KM12 colon it was 3.14 µM; in the assay with MCF7 breast it was 0.641 µM. The GI50 in the assay on RXF 393 renal was 24.6 µM; in the assay with TK-10 renal it was 35.6 µM; in the assay with UACC-257 melanoma, 78.5 µM. The TGI in the assay on CAKI-1 renal was 84.5 µM; with CCRF-CEM leukemia, 54.6 µM and 157 µM; in the assay with COLO 205 colon, over 128 µM; in the assay with HCT-116 colon, over 250 µM; in the assay with KM12 colon, over 250 µM; in the assay with MCF7 breast, over 250 µM. Moreover, the TGI was 210 µM in the assay on RXF 393 renal, over 231 µM in the assay on SR leukemia, 244 µM in the assay on TK-10 renal and over 250 µM in the assay on UACC-257 melanoma.
`C=C(Br)CN=CN(C)C`: the TGI in the assay with CAKI-1 renal, in the assay on CCRF-CEM leukemia, in the assay on COLO 205 colon, with HCT-116 colon, in the assay on MCF7 breast and in the assay on RXF 393 renal was over 100 µM each time. The TGI with SR leukemia, in the assay with TK-10 renal and in the assay with UACC-257 melanoma was over 100 µM each time.
